Data as given in PubChem BioAssay AID2060903 (Molecular Pharmacology Branch, DTP, NCI, 2025).

System: 377384-186-R-J1-PDC complex spheroid viability
Experiment: Anticancer human tumor 377384-186-R-J1-PDC patient-derived pancreatic carcinoma cell line growth inhibition [RAS]
Conditions: for IC50: curve of first compound; for viability, T/C: stronger effect = lower value
In short: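 Agents were tested in combination matrices in half-log decrements from a top concentration at or near clinical Cmax (10 microM if undetermined). Targets were multi-cell spheroids of tumour lines plus HUVEC and MSC stromal cells.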

[1] = second compound 0.000949 µM, first compound 0.00316 µM
[2] = second compound 0.000949 µM, first compound 0.01 µM
[3] = second compound 0.000949 µM, first compound 0.0316 µM
[4] = second compound 0.000949 µM, first compound 0.1 µM
[5] = second compound 0.003 µM, first compound 0.00316 µM
[6] = second compound 0.003 µM, first compound 0.01 µM
[7] = second compound 0.003 µM, first compound 0.0316 µM
[8] = second compound 0.003 µM, first compound 0.1 µM
[9] = second compound 0.00949 µM, first compound 0.00316 µM
[10] = second compound 0.00949 µM, first compound 0.01 µM
[11] = second compound 0.00949 µM, first compound 0.0316 µM
[12] = second compound 0.00949 µM, first compound 0.1 µM
[13] = second compound 0.03 µM, first compound 0.00316 µM
[14] = second compound 0.03 µM, first compound 0.01 µM
[15] = second compound 0.03 µM, first compound 0.0316 µM
[16] = second compound 0.03 µM, first compound 0.1 µM
[17] = second compound 0.0949 µM, first compound 0.00316 µM
[18] = second compound 0.0949 µM, first compound 0.01 µM
[19] = second compound 0.0949 µM, first compound 0.0316 µM
[20] = second compound 0.0949 µM, first compound 0.1 µM
[21] = second compound 0.3 µM, first compound 0.00316 µM
[22] = second compound 0.3 µM, first compound 0.01 µM
[23] = second compound 0.3 µM, first compound 0.0316 µM
[24] = second compound 0.3 µM, first compound 0.1 µM
[25] = second compound 0.000949 µM, first compound 0.316 µM
[26] = second compound 0.000949 µM, first compound 1 µM
[27] = second compound 0.003 µM, first compound 0.316 µM
[28] = second compound 0.003 µM, first compound 1 µM
[29] = second compound 0.00949 µM, first compound 0.316 µM
[30] = second compound 0.00949 µM, first compound 1 µM
[31] = second compound 0.03 µM, first compound 0.316 µM
[32] = second compound 0.03 µM, first compound 1 µM
[33] = second compound 0.0949 µM, first compound 0.316 µM
[34] = second compound 0.0949 µM, first compound 1 µM
[35] = second compound 0.3 µM, first compound 0.316 µM
[36] = second compound 0.3 µM, first compound 1 µM
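Note: spheroids exposed to compounds for seven days before readout.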

Which results are given for `CC(C)n1nc(-c2ccc3oc(N)nc3c2)c2c(N)ncnc21` + CCn1c(-c2cccnc2C(C)OC)c2c3cc(ccc31)N1CCOC(CC(NC(=O)C(C(C)C)N(C)C(=O)C3(F)CCN(C(=O)C#CC(C)(C)N(C)C)CC3)C(=O)N3CCCC(N3)C(=O)OCC(C)(C)C2)C1?
IC50 (second compound 0.000949 µM): > 100 nM; IC50 (second compound 0.003 µM): > 100 nM; IC50 (second compound 0.00949 µM): > 100 nM; IC50 (second compound 0.03 µM): > 100 nM; IC50 (second compound 0.0949 µM): > 100 nM; IC50 (second compound 0.3 µM): 7.68 nM; viability, T/C (second compound 0.000949 µM, first compound 0.000316 µM): 96.9%; viability, T/C (second compound 0.000949 µM, first compound 0.001 µM): 92%; viability, T/C [1]: 80.3%; viability, T/C [2]: 62.1%; viability, T/C [3]: 31.9%; viability, T/C [4]: 99%; viability, T/C (second compound 0.003 µM, first compound 0.000316 µM): 93.8%; viability, T/C (second compound 0.003 µM, first compound 0.001 µM): 84.8%; viability, T/C [5]: 86.8%; viability, T/C [6]: 59.4%; viability, T/C [7]: 37.1%; viability, T/C [8]: 98.4%; viability, T/C (second compound 0.00949 µM, first compound 0.000316 µM): 96.2%; viability, T/C (second compound 0.00949 µM, first compound 0.001 µM): 91.7%; viability, T/C [9]: 66.6%; viability, T/C [10]: 55.8%; viability, T/C [11]: 34.1%; viability, T/C [12]: 89.8%; viability, T/C (second compound 0.03 µM, first compound 0.000316 µM): 86.6%; viability, T/C (second compound 0.03 µM, first compound 0.001 µM): 78.1%; viability, T/C [13]: 72.3%; viability, T/C [14]: 53.8%; viability, T/C [15]: 33.7%; viability, T/C [16]: 101%; viability, T/C (second compound 0.0949 µM, first compound 0.000316 µM): 77%; viability, T/C (second compound 0.0949 µM, first compound 0.001 µM): 82.2%; viability, T/C [17]: 71.4%; viability, T/C [18]: 55%; viability, T/C [19]: 37.9%; viability, T/C [20]: 69.3%; viability, T/C (second compound 0.3 µM, first compound 0.000316 µM): 68.8%; viability, T/C (second compound 0.3 µM, first compound 0.001 µM): 74.7%; viability, T/C [21]: 66.8%; viability, T/C [22]: 45.7%; viability, T/C [23]: 27.2%; viability, T/C [24]: 56.1%

For `CCN1CCN(Cc2ccc(Nc3ncc(F)c(-c4cc(F)c5nc(C)n(C(C)C)c5c4)n3)nc2)CC1` + CCn1c(-c2cccnc2C(C)OC)c2c3cc(ccc31)N1CCOC(CC(NC(=O)C(C(C)C)N(C)C(=O)C3(F)CCN(C(=O)C#CC(C)(C)N(C)C)CC3)C(=O)N3CCCC(N3)C(=O)OCC(C)(C)C2)C1, which IC50 (second compound 0.000949 µM) is on record?
The IC50 was 315 nM.

And the IC50 (second compound 0.003 µM)?
The IC50 was 222 nM.

And the IC50 (second compound 0.00949 µM)?
The IC50 was 257 nM.

And the IC50 (second compound 0.03 µM)?
The IC50 was 126 nM.

What about the IC50 (second compound 0.0949 µM) of the same compound?
The IC50 was 178 nM.

What about the IC50 (second compound 0.3 µM) of the same compound?
Its IC50 is 83.7 nM.

And the viability, T/C [1]?
Its viability, T/C is 97%.

What about the viability, T/C [2] of the same compound?
Its viability, T/C is 75.4%.

And the viability, T/C [3]?
Its viability, T/C is 68.4%.

What about the viability, T/C [4] of the same compound?
The viability, T/C was 65.8%.

And the viability, T/C [25]?
The viability, T/C was 46.6%.

And the viability, T/C [26]?
The viability, T/C was 42%.

And the viability, T/C [5]?
The viability, T/C was 96%.

What about the viability, T/C [6] of the same compound?
Its viability, T/C is 78.7%.

And the viability, T/C [7]?
The viability, T/C was 75.3%.

What about the viability, T/C [8] of the same compound?
The viability, T/C was 54.6%.

What about the viability, T/C [27] of the same compound?
The viability, T/C was 45.8%.

And the viability, T/C [28]?
The viability, T/C was 41.3%.

What about the viability, T/C [9] of the same compound?
The viability, T/C was 102%.

And the viability, T/C [10]?
Its viability, T/C is 93.4%.

And the viability, T/C [11]?
Its viability, T/C is 65.2%.

What about the viability, T/C [12] of the same compound?
The viability, T/C was 60%.

And the viability, T/C [29]?
Its viability, T/C is 50.2%.

And the viability, T/C [30]?
The viability, T/C was 43.2%.

What about the viability, T/C [13] of the same compound?
Its viability, T/C is 81.2%.

What about the viability, T/C [14] of the same compound?
The viability, T/C was 89.2%.

What about the viability, T/C [15] of the same compound?
The viability, T/C was 75.9%.

And the viability, T/C [16]?
The viability, T/C was 52%.

What about the viability, T/C [31] of the same compound?
The viability, T/C was 43%.

What about the viability, T/C [32] of the same compound?
Its viability, T/C is 44.5%.

What about the viability, T/C [17] of the same compound?
Its viability, T/C is 85%.

What about the viability, T/C [18] of the same compound?
The viability, T/C was 83.3%.

And the viability, T/C [19]?
The viability, T/C was 73.9%.

What about the viability, T/C [20] of the same compound?
Its viability, T/C is 58.8%.

What about the viability, T/C [33] of the same compound?
The viability, T/C was 41.3%.

And the viability, T/C [34]?
The viability, T/C was 34.5%.

What about the viability, T/C [21] of the same compound?
Its viability, T/C is 75.3%.

And the viability, T/C [22]?
The viability, T/C was 73%.

What about the viability, T/C [23] of the same compound?
Its viability, T/C is 64.2%.

And the viability, T/C [24]?
The viability, T/C was 48.4%.

And the viability, T/C [35]?
The viability, T/C was 34.5%.

And the viability, T/C [36]?
Its viability, T/C is 35.3%.

For `C[C@@H](NC(=O)c1ncnc(N)c1Cl)c1ncc(C(=O)Nc2cc(C(F)(F)F)c(Cl)cn2)s1` + CCn1c(-c2cccnc2C(C)OC)c2c3cc(ccc31)N1CCOC(CC(NC(=O)C(C(C)C)N(C)C(=O)C3(F)CCN(C(=O)C#CC(C)(C)N(C)C)CC3)C(=O)N3CCCC(N3)C(=O)OCC(C)(C)C2)C1, which IC50 (second compound 0.000949 µM) is on record?
Its IC50 is > 10000 nM.

What about the IC50 (second compound 0.003 µM) of the same compound?
The IC50 was > 10000 nM.

What about the IC50 (second compound 0.00949 µM) of the same compound?
Its IC50 is > 10000 nM.

And the IC50 (second compound 0.03 µM)?
Its IC50 is > 10000 nM.

What about the IC50 (second compound 0.0949 µM) of the same compound?
The IC50 was > 10000 nM.

What about the IC50 (second compound 0.3 µM) of the same compound?
Its IC50 is > 10000 nM.

What about the viability, T/C [3] of the same compound?
The viability, T/C was 106%.

And the viability, T/C [4]?
Its viability, T/C is 109%.

And the viability, T/C [25]?
The viability, T/C was 113%.

What about the viability, T/C [26] of the same compound?
The viability, T/C was 133%.

What about the viability, T/C (second compound 0.000949 µM, first compound 3.16 µM) of the same compound?
The viability, T/C was 128%.

What about the viability, T/C (second compound 0.000949 µM, first compound 10 µM) of the same compound?
Its viability, T/C is 111%.

And the viability, T/C [7]?
Its viability, T/C is 102%.

What about the viability, T/C [8] of the same compound?
Its viability, T/C is 104%.

What about the viability, T/C [27] of the same compound?
The viability, T/C was 120%.

And the viability, T/C [28]?
Its viability, T/C is 134%.

And the viability, T/C (second compound 0.003 µM, first compound 3.16 µM)?
Its viability, T/C is 127%.

And the viability, T/C (second compound 0.003 µM, first compound 10 µM)?
The viability, T/C was 108%.

What about the viability, T/C [11] of the same compound?
The viability, T/C was 98%.

And the viability, T/C [12]?
Its viability, T/C is 114%.

And the viability, T/C [29]?
The viability, T/C was 106%.

And the viability, T/C [30]?
Its viability, T/C is 129%.

What about the viability, T/C (second compound 0.00949 µM, first compound 3.16 µM) of the same compound?
Its viability, T/C is 150%.

What about the viability, T/C (second compound 0.00949 µM, first compound 10 µM) of the same compound?
The viability, T/C was 108%.

And the viability, T/C [15]?
Its viability, T/C is 110%.

What about the viability, T/C [16] of the same compound?
The viability, T/C was 106%.

What about the viability, T/C [31] of the same compound?
The viability, T/C was 129%.

And the viability, T/C [32]?
Its viability, T/C is 115%.

What about the viability, T/C (second compound 0.03 µM, first compound 3.16 µM) of the same compound?
The viability, T/C was 142%.

What about the viability, T/C (second compound 0.03 µM, first compound 10 µM) of the same compound?
Its viability, T/C is 103%.

And the viability, T/C [19]?
Its viability, T/C is 96.8%.

What about the viability, T/C [20] of the same compound?
Its viability, T/C is 98.5%.

What about the viability, T/C [33] of the same compound?
The viability, T/C was 113%.

And the viability, T/C [34]?
The viability, T/C was 118%.

And the viability, T/C (second compound 0.0949 µM, first compound 3.16 µM)?
Its viability, T/C is 130%.

And the viability, T/C (second compound 0.0949 µM, first compound 10 µM)?
The viability, T/C was 99.6%.

And the viability, T/C [23]?
The viability, T/C was 88.1%.

What about the viability, T/C [24] of the same compound?
The viability, T/C was 89.3%.

And the viability, T/C [35]?
Its viability, T/C is 85.5%.

What about the viability, T/C [36] of the same compound?
The viability, T/C was 95.9%.

And the viability, T/C (second compound 0.3 µM, first compound 3.16 µM)?
Its viability, T/C is 108%.

What about the viability, T/C (second compound 0.3 µM, first compound 10 µM) of the same compound?
The viability, T/C was 82.4%.
